Key:
[1] = molecular target: human P2X2/3 receptor (Homo sapiens (Human), UniProt P56373+Q9UBL9); test: Intracellular calcium measurement (FLIPR, Fluo-4) of antagonist activity at human P2X2/3 receptors; format: cell-based; details: human P2X2/3, FLIPR calcium assay, agonist α,β-Me-ATP; read-out: hP2X2/3 IC50
Method: (§1) Intracellular Calcium Measurement to Assess Antagonist Activity at Human P2X3 and Human P2X2/3 Receptors
(§2) A fluorescent imaging plate reader (FLEX/FLIPR station; Molecular Devices) was used to monitor intracellular calcium levels using the calcium-chelating dye Fluo-4 (Molecular Probes). […] Cells expressing purinergic receptors P2X3 (human) or P2X2/3 (human) were plated at a density of 15,000 cells/well in collagen-coated 384-well plates approximately 20 hours before beginning the assay. […] The test compound was added in a volume of 5 μl and allowed to incubate for 30 min at 37° C. The final assay DMSO concentration is 1%. The agonist, α,β-Me-ATP, was added in a volume of 20 μl at a concentration representing the EC80 value. The fluorescence was measured for an interval of 90 sec at 2 sec intervals and analyzed based on the increase in peak relative fluorescence units (RFU) compared to the basal fluorescence. Peak fluorescence was used to determine the response to agonist obtained at each concentration of test compound by the following equation: % Response=100*(RFU(test compound)−RFU(control)/RFU(DMSO)−RFU(control))
(§3) The Examples were tested in triplicates per plate and mean values were plotted in Excel XLFit to determine IC50 values at the human P2X3 and human P2X2/3 receptors, percentage of maximal inhibition and the Hill coefficients.

[2] = molecular target: human P2X3 receptor (Homo sapiens (Human), UniProt P56373); test: Intracellular calcium measurement (FLIPR, Fluo-4) of antagonist activity at human P2X3 receptors; format: cell-based; details: human P2X3, FLIPR calcium assay, agonist α,β-Me-ATP; read-out: hP2X3 IC50
Method: as §1, §2, §3

human P2X3 receptor, sequence (P56373 whole entry): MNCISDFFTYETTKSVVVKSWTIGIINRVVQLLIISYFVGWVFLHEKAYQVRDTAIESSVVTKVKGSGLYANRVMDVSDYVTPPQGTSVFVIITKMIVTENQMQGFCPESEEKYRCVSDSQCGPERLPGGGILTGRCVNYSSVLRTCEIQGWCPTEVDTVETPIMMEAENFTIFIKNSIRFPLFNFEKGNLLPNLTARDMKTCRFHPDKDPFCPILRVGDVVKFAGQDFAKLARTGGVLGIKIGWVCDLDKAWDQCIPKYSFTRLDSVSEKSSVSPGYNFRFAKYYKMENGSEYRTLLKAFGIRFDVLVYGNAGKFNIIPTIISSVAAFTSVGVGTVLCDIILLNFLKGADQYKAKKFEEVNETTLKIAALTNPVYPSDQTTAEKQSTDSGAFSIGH
human P2X2/3 receptor, sequence (P56373 whole entry): as above
human P2X2/3 receptor, sequence (Q9UBL9 whole entry): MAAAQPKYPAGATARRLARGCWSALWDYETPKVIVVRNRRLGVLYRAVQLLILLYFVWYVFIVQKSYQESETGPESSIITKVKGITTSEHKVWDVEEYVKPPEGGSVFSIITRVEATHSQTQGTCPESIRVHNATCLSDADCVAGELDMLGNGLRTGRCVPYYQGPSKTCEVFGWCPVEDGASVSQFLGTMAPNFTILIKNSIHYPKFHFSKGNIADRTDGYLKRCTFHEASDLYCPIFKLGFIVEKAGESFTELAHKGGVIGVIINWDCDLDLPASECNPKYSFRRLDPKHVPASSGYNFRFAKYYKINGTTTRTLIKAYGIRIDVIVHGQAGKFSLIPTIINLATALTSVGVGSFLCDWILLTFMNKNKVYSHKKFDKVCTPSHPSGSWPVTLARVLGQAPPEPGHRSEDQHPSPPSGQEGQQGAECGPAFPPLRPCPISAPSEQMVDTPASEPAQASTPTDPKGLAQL

Row | Compound | IC50 [1] [µM] | IC50 [2] [µM]
1 | Cc1ccc([C@@H](C)NC(=O)c2cc(OC3COC3)cc(-c3ncc(C)s3)c2)nn1 [Example 47, N-[(1R)-1-(6-Methylpyridazin-3-yl)ethyl]-3-(5-methyl-1,3-thiazol-2-yl)-5-(oxetan-3-yloxy)benzamide] | 0.621 | 0.082
2 | Cc1cnc(-c2cc(OC3COC3)cc(C(=O)NC(C)c3ncc(F)cc3Cl)c2)s1 (stereo not drawn) [Example 49, N-[1-(3-Chloro-5-fluoropyridin-2-yl)ethyl]-3-(5-methyl-1,3-thiazol-2-yl)-5-(oxetan-3-yloxy)benzamide] | 1.53 | 0.132
3 | Cc1cnc(-c2cc(OC3COC3)cc(C(=O)N[C@H](C)c3nnc(C)s3)c2)s1 [Example 50, N-[(1R)-1-(5-Methyl-1,3,4-thiadiazol-2-yl)ethyl]-3-(5-methyl-1,3-thiazol-2-yl)-5-(oxetan-3-yloxy)benzamide] | 0.982 | 0.077
4 | Cc1cnc(-c2cc(OC3COC3)cc(C(=O)NCc3ccc(C(F)(F)F)nn3)c2)s1 [Example 52, 3-(5-methyl-1,3-thiazol-2-yl)-5-(oxetan-3-yloxy)-N-{[6-(trifluoromethyl)pyridazin-3-yl]methyl}benzamide] | 0.564 | 0.194
5 | CC[C@@H](NC(=O)c1cc(OC2COC2)cc(-c2ncc(C)s2)c1)c1cnc(C(F)(F)F)nc1 [Example 53, 3-(5-methyl-1,3-thiazol-2-yl)-5-(oxetan-3-yloxy)-N-{(1R)-1-[2-(trifluoromethyl)pyrimidin-5-yl]propyl}benzamide] | 2.74 | 0.318
6 | Cc1cnc(CNC(=O)c2cc(OC[C@@H]3CCCO3)cc(-c3ncc(C)s3)c2)cn1 [Example 56, N-[(5-Methylpyrazin-2-yl)methyl]-3-(5-methyl-1,3-thiazol-2-yl)-5-[(2S)-tetrahydrofuran-2-ylmethoxy]benzamide] | ≥ 10 | 0.148
7 | Cc1cnc([C@@H](C)NC(=O)c2cc(OC[C@@H]3CCCO3)cc(-c3ncc(C)s3)c2)cn1 [Example 57, N-[(1R)-1-(5-Methylpyrazin-2-yl)ethyl]-3-(5-methyl-1,3-thiazol-2-yl)-5-[(2S)-tetrahydrofuran-2-ylmethoxy]benzamide] | 2.84 | 0.025
8 | Cc1cnc(-c2cc(OC[C@@H]3CCCO3)cc(C(=O)N[C@H](C)c3cnc(C(F)(F)F)nc3)c2)s1 [Example 58, 3-(5-Methyl-1,3-thiazol-2-yl)-5-[(2S)-tetrahydrofuran-2-ylmethoxy]-N-{(1R)-1-[2-(trifluoromethyl)pyrimidin-5-yl]ethyl}benzamide] | 0.461 | 0.004
9 | Cc1ccc([C@@H](C)NC(=O)c2cc(OC[C@@H]3CCCO3)cc(-c3ncc(C)s3)c2)nn1 [Example 59, N-[(1R)-1-(6-Methylpyridazin-3-yl)ethyl]-3-(5-methyl-1,3-thiazol-2-yl)-5-[(2S)-tetrahydrofuran-2-ylmethoxy]benzamide] | 0.507 | 0.013
10 | Cc1cnc(-c2cc(OC[C@@H]3CCCO3)cc(C(=O)N[C@H](C)c3ccc(C(F)(F)F)nn3)c2)s1 [Example 60, 3-(5-Methyl-1,3-thiazol-2-yl)-5-[(2S)-tetrahydrofuran-2-ylmethoxy]-N-{(1R)-1-[6-(trifluoromethyl)pyridazin-3-yl]ethyl}benzamide] | 0.578 | 0.011
11 | Cc1ccc([C@@H](C)NC(=O)c2cc(OC[C@H]3CCCO3)cc(-c3ncc(C)s3)c2)nn1 [Example 61, N-[(1R)-1-(6-methylpyridazin-3-yl)ethyl]-3-(5-methyl-1,3-thiazol-2-yl)-5-[(2R)-tetrahydrofuran-2-ylmethoxy]benzamide] | 0.428 | 0.014
12 | Cc1ccc(CNC(=O)c2cc(OC[C@H]3CCCO3)cc(-c3ncc(C)s3)c2)nn1 [Example 62, N-[(6-Methylpyridazin-3-yl)methyl]-3-(5-methyl-1,3-thiazol-2-yl)-5-[(2R)-tetrahydrofuran-2-ylmethoxy]benzamide] | 1.44 | 0.085
13 | Cc1cnc(-c2cc(OC[C@H]3CCCO3)cc(C(=O)N[C@H](C)c3cnc(C(F)(F)F)nc3)c2)s1 [Example 63, 3-(5-Methyl-1,3-thiazol-2-yl)-5-[(2R)-tetrahydrofuran-2-ylmethoxy]-N-{(1R)-1-[2-(trifluoromethyl)pyrimidin-5-yl]ethyl}benzamide] | 0.118 | 0.004
14 | Cc1cnc([C@@H](C)NC(=O)c2cc(OC[C@H]3CCCO3)cc(-c3ncc(C)s3)c2)cn1 [Example 64, N-[(1R)-1-(5-methylpyrazin-2-yl)ethyl]-3-(5-methyl-1,3-thiazol-2-yl)-5-[(2R)-tetrahydrofuran-2-ylmethoxy]benzamide] | 0.984 | 0.053
15 | Cc1cnc(-c2cc(OC[C@H]3CCOC3)cc(C(=O)NC(C)c3ncc(Cl)cc3F)c2)s1 (stereo partly drawn) [Example 65, N-[1-(5-Chloro-3-fluoropyridin-2-yl)ethyl]-3-(5-methyL-1,3-thiazol-2-yl)-5-[(3S)-tetrahydrofuran-3-ylmethoxy]benzamide] | 0.054 | 0.003
16 | Cc1ccc(CNC(=O)c2cc(OC[C@H]3CCOC3)cc(-c3ncc(C)s3)c2)nn1 [Example 66, N-[(6-Methylpyridazin-3-yl)methyl]-3-(5-methyl-1,3-thiazol-2-yl)-5-[(3S)-tetrahydrofuran-3-ylmethoxy]benzamide] | 6.29 | 0.035
17 | Cc1cnc(CNC(=O)c2cc(OC[C@H]3CCOC3)cc(-c3ncc(C)s3)c2)cn1 [Example 67, N-[(5-Methylpyrazin-2-yl)methyl]-3-(5-methyl-1,3-thiazol-2-yl)-5-[(3S)-tetrahydrofuran-3-ylmethoxy]benzamide] | ≥ 10 | 0.186
18 | Cc1cnc([C@@H](C)NC(=O)c2cc(OC[C@H]3CCOC3)cc(-c3ncc(C)s3)c2)cn1 [Example 68, N-[(1R)-1-(5-Methylpyrazin-2-yl)ethyl]-3-(5-methyl-1,3-thiazol-2-yl)-5-[(3S)-tetrahydrofuran-3-ylmethoxy]benzamide] | 1.62 | 0.044
19 | Cc1cnc(-c2cc(OC[C@H]3CCOC3)cc(C(=O)N[C@H](C)c3cnc(C(F)(F)F)nc3)c2)s1 [Example 70, 3-(5-Methyl-1,3-thiazol-2-yl)-5-[(3S)-tetrahydrofuran-3-ylmethoxy]-N-[(1R)-1-[2-(trifluoromethyl)pyrimidin-5-yl]ethyl]benzamide] | 0.078 | 0.003
20 | Cc1ccc([C@@H](C)NC(=O)c2cc(OC[C@H]3CCOC3)cc(-c3ncc(C)s3)c2)nn1 [Example 71, N-[(1R)-1-(6-Methylpyridazin-3-yl)ethyl]-3-(5-methyl-1,3-thiazol-2-yl)-5-[(3S)-tetrahydrofuran-3-ylmethoxy]benzamide] | 0.315 | 0.015
21 | Cc1cnc(-c2cc(OC[C@H]3CCOC3)cc(C(=O)N[C@H](C)c3ccc(C(F)(F)F)nn3)c2)s1 [Example 72, 3-(5-Methyl-1,3-thiazol-2-yl)-5-[(3S)-tetrahydrofuran-3-ylmethoxy]-N-[(1R)-1-[6-(trifluoromethyl)pyridazin-3-yl]ethyl]benzamide] | 0.33 | 0.011
22 | Cc1cnc(-c2cc(OC[C@@H]3CCOC3)cc(C(=O)N[C@H](C)c3cnc(C(F)(F)F)nc3)c2)s1 [Example 73, 3-(5-Methyl-1,3-thiazol-2-yl)-5-[(3R)-tetrahydrofuran-3-ylmethoxy]-N-[(1R)-1-[2-(trifluoromethyl)pyrimidin-5-yl]ethyl]benzamide] | 0.101 | 0.004
23 | Cc1cnc([C@@H](C)NC(=O)c2cc(OC[C@@H]3CCOC3)cc(-c3ncc(C)s3)c2)cn1 [Example 74, N-[(1R)-1-(5-Methylpyrazin-2-yl)ethyl]-3-(5-methyl-1,3-thiazol-2-yl)-5-[(3R)-tetrahydrofuran-3-ylmethoxy]benzamide] | 1.11 | 0.014
24 | Cc1ccc(CNC(=O)c2cc(OC[C@@H]3CCOC3)cc(-c3ncc(C)s3)c2)nn1 [Example 75, N-[(6-Methylpyridazin-3-yl)methyl]-3-(5-methyl-1,3-thiazol-2-yl)-5-[(3R)-tetrahydrofuran-3-ylmethoxy]benzamide] | 6.64 | 0.038
25 | Cc1cnc(CNC(=O)c2cc(OC[C@@H]3CCOC3)cc(-c3ncc(C)s3)c2)cn1 [Example 76, N-[(5-Methylpyrazin-2-yl)methyl]-3-(5-methyl-1,3-thiazol-2-yl)-5-[(3R)-tetrahydrofuran-3-ylmethoxy]benzamide] | 5.79 | 0.201
26 | Cc1ccc([C@@H](C)NC(=O)c2cc(OC[C@@H]3CCOC3)cc(-c3ncc(C)s3)c2)nn1 [Example 77, N-[(1R)-1-(6-Methylpyridazin-3-yl)ethyl]-3-(5-methyl-1,3-thiazol-2-yl)-5-[(3R)-tetrahydrofuran-3-ylmethoxy]benzomide] | 0.183 | 0.01
27 | Cc1cnc(-c2cc(OC[C@@H]3CCOC3)cc(C(=O)NC(C)c3ncc(Cl)cc3F)c2)s1 (stereo partly drawn) [Example 78, N-[1-(5-Chloro-3-fluoropyridin-2-yl)ethyl]-3-(5-methyl-1,3-thiazol-2-yl)-5-[(3R)-tetrahydrofuran-3-ylmethoxy]benzamide] | 0.083 | 0.006
